Experimental data from patent publication US12599136B2, “Substituted isophthalic acid diamides and their use as herbicides” (Bayer Aktiengesellschaft, priority 2020, dated 2026).

Columns and labels:
Type in all cases: in vivo
Echinochloa crus-galli [1] = experiment: Pre-emergence herbicidal action against ECHCG; settings: for Pre-emergence action against ECHCG: visual score after 3 weeks vs untreated controls
Outline: (§1)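 Greenhouse pots of sandy loam held seeds covered with soil, onto which the compound was applied before emergence. An aqueous suspension or emulsion of WP or EC was used at 600 to 800 l/ha with 0.2% wetting agent. Percent damage was judged visually at 3 weeks.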

Abutilon theophrasti [2] = experiment: Post-emergence herbicidal action against ABUTH
Outline: (§2)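 A WP or EC formulation diluted in water with 0.2% wetting agent was sprayed at 600 to 800 l/ha onto one-leaf-stage plants grown in sandy loam. About 3 weeks later, action was rated visually in percent, 100% being dead plants.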

Setaria viridis [3] = experiment: Post-emergence herbicidal action against SETVI; settings: for Post-emergence action against SETVI in %: visual assessment about 3 weeks after treatment
Outline: as §2

Amaranthus retroflexus [4] = experiment: Pre-emergence herbicidal action against AMARE; settings: visual score after 3 weeks vs untreated controls
Outline: as §1

Avena fatua [5] = experiment: Post-emergence herbicidal action against AVEFA; settings: for Post-emergence action against AVEFA in %: visual assessment about 3 weeks after treatment
Outline: as §2

Veronica persica [6] = experiment: Post-emergence herbicidal action against VERPE; settings: visual assessment about 3 weeks after treatment
Outline: as §2

Viola tricolor [7] = experiment: Pre-emergence herbicidal action against VIOTR
Outline: as §1

Abutilon theophrasti [8] = experiment: Pre-emergence herbicidal action against ABUTH; settings: for Pre-emergence action against ABUTH: visual score after 3 weeks vs untreated controls
Outline: as §1

Echinochloa crus-galli [9] = experiment: Post-emergence herbicidal action against ECHCG; settings: visual assessment about 3 weeks after treatment
Outline: as §2

Digitaria sanguinalis [10] = experiment: Post-emergence herbicidal action against DIGSA
Outline: as §2

Matricaria inodora [11] = experiment: Pre-emergence herbicidal action against MATIN; settings: for Pre-emergence action against MATIN: visual score after 3 weeks vs untreated controls
Outline: as §1

Amaranthus retroflexus [12] = experiment: Post-emergence herbicidal action against AMARE; settings: visual assessment about 3 weeks after treatment
Outline: as §2

Matricaria inodora [13] = experiment: Post-emergence herbicidal action against MATIN; settings: for Post-emergence action against MATIN in %: visual assessment about 3 weeks after treatment
Outline: as §2

Setaria viridis [14] = experiment: Pre-emergence herbicidal action against SETVI
Outline: as §1

Alopecurus myosuroides [15] = experiment: Pre-emergence herbicidal action against ALOMY; settings: for Pre-emergence action against ALOMY: visual score after 3 weeks vs untreated controls
Outline: as §1

Digitaria sanguinalis [16] = experiment: Pre-emergence herbicidal action against DIGSA
Outline: as §1

Avena fatua [17] = experiment: Pre-emergence herbicidal action against AVEFA; settings: for Pre-emergence action against AVEFA: visual score after 3 weeks vs untreated controls
Outline: as §1

Viola tricolor [18] = experiment: Post-emergence herbicidal action against VIOTR
Outline: as §2

Polygonum convolvulus [19] = experiment: Post-emergence herbicidal action against POLCO; settings: 20 g/ha, visual assessment about 3 weeks after treatment
Protocol: Seeds of monocotyledonous and dicotyledonous weed and crop plants are laid out in sandy loam soil in wood-fiber pots, covered with soil and cultivated in a greenhouse under good growth conditions. 2 to 3 weeks after sowing, the test plants are treated at the one-leaf stage. The compounds of the invention, formulated in the form of wettable powders (WP) or as emulsion concentrates (EC), are then sprayed onto the green parts of the plants in the form of an aqueous suspension or emulsion at a water application rate equivalent to 600 to 800 l/ha, with addition of 0.2% wetting agent. After the test plants have been left to stand in the greenhouse under optimal growth conditions for about 3 weeks, the action of the preparations is assessed visually in comparison to untreated controls (herbicidal action in percent (%): 100% activity=the plants have died, 0% activity=like control plants). […] The tables below illustrate, in an illustrative manner, the post-emergence herbicidal action of the compounds of the invention, the herbicidal activity being stated in percent.

Veronica persica [20] = experiment: Pre-emergence herbicidal action against VERPE
Outline: as §1

Alopecurus myosuroides [21] = experiment: Post-emergence herbicidal action against ALOMY
Outline: as §2

Pharbitis purpurea [22] = experiment: Pre-emergence herbicidal action against PHBPU; settings: 80 g/ha; visual score after 3 weeks vs untreated controls
Outline: as §1

Pharbitis purpurea [23] = experiment: Post-emergence herbicidal action against PHBPU
Outline: as §2

Lolium rigidum = experiment: Pre-emergence herbicidal action against LOLRI; settings: 80 g/ha
Outline: as §1

Polygonum convolvulus [24] = experiment: Pre-emergence herbicidal action against POLCO; settings: 80 g/ha
Outline: as §1

[25] = comparative experiment, pre-emergence, 20 g a.i./ha
[26] = comparative experiment, 5 g a.i./ha

Cc1c(C(=O)Nc2nnnn2C)ccc(C(F)(F)F)c1C(=O)N(C)CC(F)F [Example 1-24]
80%: Post-emergence action against ABUTH (Abutilon theophrasti [2]; 20 g/ha) | Post-emergence action against SETVI in % (Setaria viridis [3]; 20 g/ha) | Post-emergence action against AVEFA in % (Avena fatua [5]; 20 g/ha) | Post-emergence action against VERPE in % (Veronica persica [6]; 20 g/ha) | Pre-emergence action against VIOTR (Viola tricolor [7]; 20 g/ha) | Post-emergence action against ECHCG in % (Echinochloa crus-galli [9]; 20 g/ha) | Post-emergence action against VIOTR in % (Viola tricolor [18]; 5 g/ha)
100%: Pre-emergence action against ECHCG (Echinochloa crus-galli [1]; 80 g/ha) | Pre-emergence action against AMARE (Amaranthus retroflexus [4]; 20 g/ha) | Pre-emergence action against AMARE (Amaranthus retroflexus [4]; 80 g/ha) | Pre-emergence action against VIOTR (Viola tricolor [7]; 80 g/ha) | Pre-emergence action against ABUTH (Abutilon theophrasti [8]; 20 g/ha) | Pre-emergence action against ABUTH (Abutilon theophrasti [8]; 80 g/ha) | Post-emergence action against DIGSA in % (Digitaria sanguinalis [10]; 5 g/ha) | Post-emergence action against DIGSA in % (Digitaria sanguinalis [10]; 20 g/ha) | Pre-emergence action against MATIN (Matricaria inodora [11]; 80 g/ha) | Pre-emergence action against SETVI (Setaria viridis [14]; 80 g/ha) | Pre-emergence action against DIGSA (Digitaria sanguinalis [16]; 20 g/ha) | Pre-emergence action against DIGSA (Digitaria sanguinalis [16]; 80 g/ha) | Post-emergence action against POLCO in % (Polygonum convolvulus [19]) | Pre-emergence action against VERPE (Veronica persica [20]; 80 g/ha)
90%: Pre-emergence action against MATIN (Matricaria inodora [11]; 20 g/ha) | Post-emergence action against AMARE in % (Amaranthus retroflexus [12]; 20 g/ha) | Post-emergence action against MATIN in % (Matricaria inodora [13]; 5 g/ha) | Post-emergence action against MATIN in % (Matricaria inodora [13]; 20 g/ha) | Pre-emergence action against ALOMY (Alopecurus myosuroides [15]; 80 g/ha) | Pre-emergence action against AVEFA (Avena fatua [17]; 80 g/ha) | Post-emergence action against VIOTR in % (Viola tricolor [18]; 20 g/ha) | Post-emergence action against ALOMY (Alopecurus myosuroides [21]; 20 g/ha)

CCN(C(=O)c1c(C(F)(F)F)ccc(C(=O)Nc2nnnn2CC)c1C)C1CC1 [Example 2-32]
100%: Pre-emergence action against AMARE (Amaranthus retroflexus [4]; 20 g/ha) | Pre-emergence action against AMARE (Amaranthus retroflexus [4]; 80 g/ha) | Pre-emergence action against VIOTR (Viola tricolor [7]; 80 g/ha) | Pre-emergence action against ABUTH (Abutilon theophrasti [8]; 20 g/ha) | Pre-emergence action against ABUTH (Abutilon theophrasti [8]; 80 g/ha) | Pre-emergence action against MATIN (Matricaria inodora [11]; 80 g/ha) | Post-emergence action against AMARE in % (Amaranthus retroflexus [12]; 5 g/ha) | Post-emergence action against AMARE in % (Amaranthus retroflexus [12]; 20 g/ha) | Pre-emergence action against SETVI (Setaria viridis [14]; 80 g/ha) | Pre-emergence action against DIGSA (Digitaria sanguinalis [16]; 20 g/ha) | Pre-emergence action against DIGSA (Digitaria sanguinalis [16]; 80 g/ha) | Post-emergence action against ALOMY (Alopecurus myosuroides [21]; 20 g/ha)
80%: Pre-emergence action against PHBPU (Pharbitis purpurea [22]) | Post-emergence action against AVEFA in % (Avena fatua [5]; 20 g/ha) | Pre-emergence action against MATIN (Matricaria inodora [11]; 20 g/ha) | Post-emergence action against MATIN in % (Matricaria inodora [13]; 5 g/ha) | Post-emergence action against VIOTR in % (Viola tricolor [18]; 5 g/ha) | Post-emergence action against POLCO in % (Polygonum convolvulus [19]) | Post-emergence action against ALOMY (Alopecurus myosuroides [21]; 5 g/ha)
90%: Pre-emergence action against ECHCG (Echinochloa crus-galli [1]; 80 g/ha) | Post-emergence action against SETVI in % (Setaria viridis [3]; 20 g/ha) | Pre-emergence action against VIOTR (Viola tricolor [7]; 20 g/ha) | Post-emergence action against ECHCG in % (Echinochloa crus-galli [9]; 5 g/ha) | Post-emergence action against ECHCG in % (Echinochloa crus-galli [9]; 20 g/ha) | Post-emergence action against DIGSA in % (Digitaria sanguinalis [10]; 5 g/ha) | Post-emergence action against DIGSA in % (Digitaria sanguinalis [10]; 20 g/ha) | Post-emergence action against MATIN in % (Matricaria inodora [13]; 20 g/ha) | Pre-emergence action against ALOMY (Alopecurus myosuroides [15]; 80 g/ha) | Post-emergence action against VIOTR in % (Viola tricolor [18]; 20 g/ha) | Pre-emergence action against VERPE (Veronica persica [20]; 20 g/ha) | Pre-emergence action against VERPE (Veronica persica [20]; 80 g/ha)

CCn1nnnc1NC(=O)c1ccc(C(F)F)c(C(=O)N(C)C)c1Cl [Example 2-154]
80: Herbicidal action against ECHCG (Echinochloa crus-galli [1]; [25]) | Herbicidal action against AVEFA (Avena fatua [5]; [26]) | Herbicidal action against MATIN (Matricaria inodora [13]; [26]) | Herbicidal action against ALOMY (Alopecurus myosuroides [15]; [25]) | Herbicidal action against AVEFA (Avena fatua [17]; [25]) | Herbicidal action against VIOTR (Viola tricolor [18]; [26])
70: Herbicidal action against PHBPU (Pharbitis purpurea [23]; [26])
90%: Post-emergence action against SETVI in % (Setaria viridis [3]; 5 g/ha) | Post-emergence action against VERPE in % (Veronica persica [6]; 20 g/ha) | Pre-emergence action against VIOTR (Viola tricolor [7]; 20 g/ha) | Post-emergence action against ECHCG in % (Echinochloa crus-galli [9]; 20 g/ha) | Post-emergence action against DIGSA in % (Digitaria sanguinalis [10]; 5 g/ha) | Post-emergence action against DIGSA in % (Digitaria sanguinalis [10]; 20 g/ha) | Pre-emergence action against MATIN (Matricaria inodora [11]; 20 g/ha) | Post-emergence action against AMARE in % (Amaranthus retroflexus [12]; 5 g/ha) | Post-emergence action against MATIN in % (Matricaria inodora [13]; 20 g/ha) | Post-emergence action against VIOTR in % (Viola tricolor [18]; 5 g/ha) | Post-emergence action against POLCO in % (Polygonum convolvulus [19]) | Pre-emergence action against VERPE (Veronica persica [20]; 80 g/ha) | Post-emergence action against ALOMY (Alopecurus myosuroides [21]; 5 g/ha) | Post-emergence action against ALOMY (Alopecurus myosuroides [21]; 20 g/ha)
80%: Pre-emergence action against ECHCG (Echinochloa crus-galli [1]; 20 g/ha) | Post-emergence action against PHBPU in % (Pharbitis purpurea [23]; 20 g/ha, visual assessment about 3 weeks after treatment) | Pre-emergence action against LOLRI (Lolium rigidum) | Pre-emergence action against PHBPU (Pharbitis purpurea [22]) | Post-emergence action against AVEFA in % (Avena fatua [5]; 5 g/ha) | Post-emergence action against VERPE in % (Veronica persica [6]; 5 g/ha) | Pre-emergence action against POLCO (Polygonum convolvulus [24]) | Post-emergence action against ECHCG in % (Echinochloa crus-galli [9]; 5 g/ha) | Post-emergence action against MATIN in % (Matricaria inodora [13]; 5 g/ha) | Pre-emergence action against ALOMY (Alopecurus myosuroides [15]; 20 g/ha) | Pre-emergence action against AVEFA (Avena fatua [17]; 20 g/ha)
100: Herbicidal action against ABUTH (Abutilon theophrasti [8]; [25]) | Herbicidal action against SETVI (Setaria viridis [14]; comparative experiment, 20 g a.i./ha)
90: Herbicidal action against SETVI (Setaria viridis [3]; [26]) | Herbicidal action against MATIN (Matricaria inodora [11]; [25]) | Herbicidal action against ALOMY (Alopecurus myosuroides [21]; [26])
100%: Pre-emergence action against ECHCG (Echinochloa crus-galli [1]; 80 g/ha) | Post-emergence action against ABUTH (Abutilon theophrasti [2]; 5 g/ha) | Post-emergence action against ABUTH (Abutilon theophrasti [2]; 20 g/ha) | Post-emergence action against SETVI in % (Setaria viridis [3]; 20 g/ha) | Pre-emergence action against AMARE (Amaranthus retroflexus [4]; 20 g/ha) | Pre-emergence action against AMARE (Amaranthus retroflexus [4]; 80 g/ha) | Post-emergence action against AVEFA in % (Avena fatua [5]; 20 g/ha) | Pre-emergence action against VIOTR (Viola tricolor [7]; 80 g/ha) | Pre-emergence action against ABUTH (Abutilon theophrasti [8]; 20 g/ha) | Pre-emergence action against ABUTH (Abutilon theophrasti [8]; 80 g/ha) | Pre-emergence action against MATIN (Matricaria inodora [11]; 80 g/ha) | Post-emergence action against AMARE in % (Amaranthus retroflexus [12]; 20 g/ha) | Pre-emergence action against SETVI (Setaria viridis [14]; 20 g/ha) | Pre-emergence action against SETVI (Setaria viridis [14]; 80 g/ha) | Pre-emergence action against ALOMY (Alopecurus myosuroides [15]; 80 g/ha) | Pre-emergence action against DIGSA (Digitaria sanguinalis [16]; 20 g/ha) | Pre-emergence action against DIGSA (Digitaria sanguinalis [16]; 80 g/ha) | Pre-emergence action against AVEFA (Avena fatua [17]; 80 g/ha) | Post-emergence action against VIOTR in % (Viola tricolor [18]; 20 g/ha)
